Consider 6 molecules from ChEMBL document CHEMBL1123226, “Methotrexate analogues. 29. Effect of gamma-aminobutyric acid spacers between the pteroyl and glutamate moieties on enzyme binding and cell growth inhibition” (J Med Chem, 1986).

Assay [1] has as its target T1, Thymidylate synthase (Lactobacillus casei, UniProt P00469).
T1 sequence (P00469 whole entry): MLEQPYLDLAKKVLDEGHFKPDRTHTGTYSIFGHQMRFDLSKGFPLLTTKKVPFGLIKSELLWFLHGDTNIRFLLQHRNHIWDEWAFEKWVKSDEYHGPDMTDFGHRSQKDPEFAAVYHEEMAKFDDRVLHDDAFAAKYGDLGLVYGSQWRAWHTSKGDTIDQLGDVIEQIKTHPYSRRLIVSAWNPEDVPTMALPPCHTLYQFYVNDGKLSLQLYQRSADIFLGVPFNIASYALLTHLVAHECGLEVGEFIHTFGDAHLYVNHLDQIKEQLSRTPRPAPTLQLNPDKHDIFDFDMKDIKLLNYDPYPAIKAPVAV
Nature of the assay: Compound was tested for its ability to inhibit thymidylate synthetase isolated from MTX-resistant Lactobacillus casei. On the set-up: species or system Lacticaseibacillus casei.

Assay [2] concerns L1210. Nature of the assay: Compound was tested for its ability to inhibit L1210 cell growth. It is filed as functional, cell-based. The note with it: Mus musculus.
The target in assay [3] is T2, Dihydrofolate reductase (Mus musculus) (UniProt P00375).
T2 sequence (whole entry): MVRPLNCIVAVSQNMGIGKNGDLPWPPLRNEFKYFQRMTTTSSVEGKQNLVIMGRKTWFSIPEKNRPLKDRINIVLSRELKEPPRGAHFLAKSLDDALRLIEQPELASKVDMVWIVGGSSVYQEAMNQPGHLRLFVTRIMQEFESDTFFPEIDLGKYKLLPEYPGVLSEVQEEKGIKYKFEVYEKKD
The note with it: L1210.
Description: Compound was tested for its ability to inhibit dihydrofolate reductase purified from murine L1210 cells, activity expressed as IC50/[E]

Assay [4] deals with T3, Dihydrofolate reductase (Mus musculus, UniProt P00375).
T3 sequence (P00375 whole entry): T2 sequence (whole entry)
Put plainly: biochemical.
Description: Compound was tested for its ability to inhibit dihydrofolate reductase purified from murine L1210 cells

pIC50, pKi: −log10 of the molar value.

The molecule `CN(Cc1cnc2nc(N)nc(N)c2n1)c1ccc(C(=O)NCCCC(=O)NC(CCC(=O)O)C(=O)O)cc1` (stereo unspecified) gave a pKi in assay [1] of 6.47. Besides, the pIC50 in assay [2] was 6.28; in assay [4], 7.09. This molecule also registered an IC50/[E] in assay [3] of 0.82.
`CN(Cc1cnc2nc(N)nc(N)c2n1)c1ccc(C(=O)NCCCC(=O)NCCCC(=O)NCCCC(=O)NCCCC(=O)NCCCC(=O)NC(CCC(=O)O)C(=O)O)cc1` (stereo unspecified): in assay [1], the negative-log Ki (pKi) was 6.76. Moreover, the negative-log IC50 (pIC50) in assay [2] is less than 4.00; in assay [4], 6.08. Moreover, in assay [3], the IC50/[E] turned out to be 12.
`CN(Cc1cnc2nc(N)nc(N)c2n1)c1ccc(C(=O)NCCCC(=O)NCCCC(=O)NCCCC(=O)NC(CCC(=O)O)C(=O)O)cc1` (stereo unspecified) showed a pKi in assay [1] of 6.89. The negative logarithm of the IC50 (pIC50) in assay [2] was 4.54; in assay [4] it was 6.51. The IC50/[E] in assay [3] is 4.4.
Take `CN(Cc1cnc2nc(N)nc(N)c2n1)c1ccc(C(=O)NCCCC(=O)NCCCC(=O)NCCCC(=O)NCCCC(=O)NC(CCC(=O)O)C(=O)O)cc1` (stereo unspecified): in assay [1], the pKi was 6.72. The figures for the pIC50 in assay [2] and in assay [4] were less than 4.00 and 6.27, respectively. In assay [3], this molecule registered an IC50/[E] of 7.7.
Taken in the same sequence, the figures for `CN(Cc1cnc2nc(N)nc(N)c2n1)c1ccc(C(=O)NCCCC(=O)NCCCC(=O)NC(CCC(=O)O)C(=O)O)cc1` (stereo unspecified) were 6.69, 5.25, 7.05 and 1.3.
Molecule `CN(Cc1cnc2nc(N)nc(N)c2n1)c1ccc(C(=O)N[C@@H](CCC(=O)O)C(=O)O)cc1` [METHOTREXATE] gave a negative logarithm of the IC50 (pIC50) in assay [2] of 7.70.

A word on the pKi: it is the Ki on a negative log10 scale, so that one unit is a factor of ten. In general, pIC50 refers to the negative decadic logarithm of the IC50, by convention in mol/L. Read a high pIC50 as a small IC50.
